According to patent US20260256792A1, “TREATMENT OF CHRONIC SPONTANEOUS URTICARIA BY ADMINISTERING (R)-2-[3-[4-AMINO-3-(2-FLUORO-4-PHENOXY-PHENYL)PYRAZOLO[3,4-D]PYRIMIDIN-1-YL]PIPERIDINE-1-CARBONYL]-4-METHYL-4-[4-(OXETAN-3-YL)PIPERAZIN-1-YL]PENT-2-ENENITRILE” (priority 2023, published 2026):

System: angioedema in CSU patients
Test: Phase 2 CSU study: angioedema activity score over 7 days (AAS7)
Format: in vivo, human
Conditions: 400 mg BID; for AAS7 = 0, RRD (%) for rilzabrutinib vs. placebo (95% CI) / AAS7 Post-baseline Mean (SD) / Participants with AAS7 = 0, Responder n (%) / AAS7 % Change difference for rilzabrutinib vs. placebo LS Mean (95% CI) / AAS7 Change difference for rilzabrutinib vs. placebo LS Mean (95% CI) / AAS7 Change from baseline LS Mean (SE) / AAS7 % Change from baseline LS Mean (SE) / AAS7 = 0, Non-responder n (%) / AAS7 = 0, OR (95% CI) for rilzabrutinib vs. placebo: angioedema at baseline; for Non-responder n (%), AAS7 = 0 / OR (95% CI) for rilzabrutinib vs. placebo, AAS7 = 0 / RRD (%) for rilzabrutinib vs. placebo (95% CI), AAS7 = 0 / Responder n (%), AAS7 = 0: outlier removed
Excerpt: The study comprises a 12 week, randomized, double-blind, placebo-controlled, multi-center, dose-ranging efficacy and safety phase, followed by a 40 week open label extension (OLE) phase (see FIG. 1). The study consists of three phases and an optional OLE phase. […] The weekly angioedema activity score (AAS7) was proposed as a tertiary endpoint. […] Patients were to complete the AAS using the e-diary. The e-diary was to be used once daily on the same time of each day recording of participant's answers to the angioedema activity score over 7 days (AAS7) questionnaire.

CC(C)(C=C(C#N)C(=O)N1CCC[C@@H](n2nc(-c3ccc(Oc4ccccc4)cc3F)c3c(N)ncnc32)C1)N1CCN(C2COC2)CC1 [rilzabrutinib, (R)-2-[3-[4-amino-3-(2-fluoro-4-phenoxy-phenyl)pyrazolo[3,4-d]pyrimidin-1-yl]piperidine-1-carbonyl]-4-methyl-4-[4-(oxetan-3-yl)piperazin-1-yl]pent-2-enenitrile]
AAS7 = 0, RRD (%) for rilzabrutinib vs. placebo (95% CI) (Week 8, omalizumab-naïve): 26.4 %
AAS7 Post-baseline Mean (SD) (Week 8, omalizumab-naïve): 9.97 (16.69)
Participants with AAS7 = 0, Responder n (%) (Week 8, omalizumab-naïve): 13 (50.0) n (%)
AAS7 % Change difference for rilzabrutinib vs. placebo LS Mean (95% CI) (Week 9, ITT): −26.88 (−56.35, 2.58) %
AAS7 Change difference for rilzabrutinib vs. placebo LS Mean (95% CI) (Week 9, ITT): −11.25 (−21.79, −0.72)
AAS7 Change from baseline LS Mean (SE) (Week 9, ITT): −40.70 (4.08)
AAS7 Post-baseline Mean (SD) (Week 9, ITT): 10.00 (17.78)
Non-responder n (%), AAS7 = 0 (Week 9, omalizumab-naïve): 18 (51.4) n (%)
OR (95% CI) for rilzabrutinib vs. placebo, AAS7 = 0 (Week 9, omalizumab-naïve): 0.919
RRD (%) for rilzabrutinib vs. placebo (95% CI), AAS7 = 0 (Week 9, omalizumab-naïve): −2.1 %
Responder n (%), AAS7 = 0 (Week 9, omalizumab-naïve): 17 (48.6) n (%)
AAS7 % Change from baseline LS Mean (SE) (Week 9, omalizumab-naïve): −74.80 (12.27) %
AAS7 = 0, Non-responder n (%) (Week 9, omalizumab-naïve): 14 (53.8) n (%)
AAS7 = 0, OR (95% CI) for rilzabrutinib vs. placebo (Week 9, omalizumab-naïve): 1.787
AAS7 = 0, RRD (%) for rilzabrutinib vs. placebo (95% CI) (Week 9, omalizumab-naïve): 14.5 %
AAS7 Post-baseline Mean (SD) (Week 9, omalizumab-naïve): 10.87 (18.30)
Participants with AAS7 = 0, Responder n (%) (Week 9, omalizumab-naïve): 12 (46.2) n (%)
AAS7 % Change difference for rilzabrutinib vs. placebo LS Mean (95% CI) (Week 10, ITT): −15.09 (−55.38, 25.21) %
AAS7 % Change from baseline LS Mean (SE) (Week 10, ITT): −64.07 (15.65) %
AAS7 Change difference for rilzabrutinib vs. placebo LS Mean (95% CI) (Week 10, ITT): −8.79 (−20.40, 2.82)
AAS7 Change from baseline LS Mean (SE) (Week 10, ITT): −39.12 (4.47)
AAS7 Post-baseline Mean (SD) (Week 10, ITT): 12.72 (19.89)
Non-responder n (%), AAS7 = 0 (Week 10, omalizumab-naïve): 19 (54.3) n (%)
OR (95% CI) for rilzabrutinib vs. placebo, AAS7 = 0 (Week 10, omalizumab-naïve): 0.945
RRD (%) for rilzabrutinib vs. placebo (95% CI), AAS7 = 0 (Week 10, omalizumab-naïve): −1.4 %
Responder n (%), AAS7 = 0 (Week 10, omalizumab-naïve): 16 (45.7) n (%)
AAS7 % Change from baseline LS Mean (SE) (Week 10, omalizumab-naïve): −60.11 (16.65) %
AAS7 = 0, Non-responder n (%) (Week 10, omalizumab-naïve): 15 (57.7) n (%)
AAS7 = 0, OR (95% CI) for rilzabrutinib vs. placebo (Week 10, omalizumab-naïve): 1.734
AAS7 = 0, RRD (%) for rilzabrutinib vs. placebo (95% CI) (Week 10, omalizumab-naïve): 13.1 %
AAS7 Post-baseline Mean (SD) (Week 10, omalizumab-naïve): 13.93 (20.43)
Participants with AAS7 = 0, Responder n (%) (Week 10, omalizumab-naïve): 11 (42.3) n (%)
AAS7 % Change difference for rilzabrutinib vs. placebo LS Mean (95% CI) (Week 11, ITT): −23.43 (−51.36, 4.50) %
AAS7 % Change from baseline LS Mean (SE) (Week 11, ITT): −84.81 (10.85) %
AAS7 Change difference for rilzabrutinib vs. placebo LS Mean (95% CI) (Week 11, ITT): −8.17 (−19.55, 3.20)
AAS7 Change from baseline LS Mean (SE) (Week 11, ITT): −42.03 (4.41)
AAS7 Post-baseline Mean (SD) (Week 11, ITT): 10.31 (18.47)
Non-responder n (%), AAS7 = 0 (Week 11, omalizumab-naïve): 14 (40.0) n (%)
OR (95% CI) for rilzabrutinib vs. placebo, AAS7 = 0 (Week 11, omalizumab-naïve): 1.516
RRD (%) for rilzabrutinib vs. placebo (95% CI), AAS7 = 0 (Week 11, omalizumab-naïve): 10.4 %
Responder n (%), AAS7 = 0 (Week 11, omalizumab-naïve): 21 (60.0) n (%)
AAS7 = 0, Non-responder n (%) (Week 11, omalizumab-naïve): 13 (50.0) n (%)
AAS7 = 0, OR (95% CI) for rilzabrutinib vs. placebo (Week 11, omalizumab-naïve): 2.010
AAS7 = 0, RRD (%) for rilzabrutinib vs. placebo (95% CI) (Week 11, omalizumab-naïve): 17.8 %
AAS7 Post-baseline Mean (SD) (Week 11, omalizumab-naïve): 11.30 (19.07)
Participants with AAS7 = 0, Responder n (%) (Week 11, omalizumab-naïve): 13 (50.0) n (%)
AAS7 % Change from baseline LS Mean (SE) (Week 12, ITT): −87.51 (10.12) %
AAS7 Change difference for rilzabrutinib vs. placebo LS Mean (95% CI) (Week 12, ITT): −7.07 (−17.69, 3.54)
AAS7 Change from baseline LS Mean (SE) (Week 12, ITT): −42.38 (4.13)
AAS7 Post-baseline Mean (SD) (Week 12, ITT): 10.67 (17.53)
patients with angioedema score (AAS7) of 0 (Week 12, omalizumab-naïve): 42.3%
Non-responder n (%), AAS7 = 0 (Week 12, omalizumab-naïve): 18 (51.4) n (%)
OR (95% CI) for rilzabrutinib vs. placebo, AAS7 = 0 (Week 12, omalizumab-naïve): 0.925
RRD (%) for rilzabrutinib vs. placebo (95% CI), AAS7 = 0 (Week 12, omalizumab-naïve): −1.9 %
Responder n (%), AAS7 = 0 (Week 12, omalizumab-naïve): 17 (48.6) n (%)
AAS7 = 0, Non-responder n (%) (Week 12, omalizumab-naïve): 15 (57.7) n (%)
AAS7 = 0, OR (95% CI) for rilzabrutinib vs. placebo (Week 12, omalizumab-naïve): 1.627
AAS7 = 0, RRD (%) for rilzabrutinib vs. placebo (95% CI) (Week 12, omalizumab-naïve): 11.3 %
AAS7 Change difference for rilzabrutinib vs. placebo LS Mean (95% CI) (Week 12, omalizumab-naïve): −8.14 (−19.74, 3.45)
